As a reminder, the inhibition is the change of the read-out against control, counted positive when it falls. What is called IC50 is the midpoint of a concentration-inhibition curve.

This assay addresses T1, WT-TTR (Homo sapiens, UniProt P02766).
T1 construct: made in house
As to the kind of experiment: Stagnant acid-mediated TTR aggregation (fibril formation) assay, turbidity at 340 nm. The assay is classed as biochemical. The note with it: for remaining activity at 100 µM / remaining activity at 50 µM: 72 h; for remaining activity at 50 µM: read-out: % FF at 50 μM; for IC50: Table 3, WT-TTR 7.2 μM, read-out: IC50. The procedure: Stagnant Acid-Mediated TTR Aggregation Assay.
After 1 h, the samples were diluted with 0.5 ml of 200 mM sodium acetate buffer containing 100 mM KCl and 1 mM EDTA. Samples after mild vortexing were incubated at 37° C. for the desired amount of time without stirring to evaluate the efficacy of the inhibitors. The extent of aggregation was probed by turbidity measurements at 340 nm using Tecan GENios microplate reader. […] The extent of TTR fibril formation in the absence of inhibitor was defined to be 100%. […] All experiments were done in triplicate. […] The IC50 was determined by plotting mean of % inhibition vs log and fitted to sigmoid equation:
The experiments were conducted at 25° C. After 1 h, the samples were diluted with 0.5 mL of 200 mM sodium acetate buffer pH 4.4 containing 100 mM KCl and 1 mM EDTA, vortexed, and incubated at 37° C. for 72 h. […] The stoichiometry of the binding of the inhibitors was determined by HPLC as described by Green et al., N. S. Palaninathan, S, L, Sacchettini, J. e. […] Dissociation constant of binding of these compounds to TTR was determined by fluorescence titration, and data were fitted into the Adair equation for two bind mg.

[1] abbreviates: pH 4.4, compound 100 μM, WT-TTR 7.2 μM, pH 4.4, 37° C., read-out: % FF.
[2] abbreviates: pH 4.4, compound 100 μM, WT-TTR 7.2 μM, pH 4.4, 37° C., read-out: % Inhibition.
Setting [3] is: biphenyl ether 50 μM, WT-TTR 7.2 μM.

Like-named read-outs stand apart in the source and are kept apart here.

With `CCOC(=O)c1c(N)sc(C(=O)NC2CCCCC2)c1C` [Compound R052-1597], the remaining activity at 100 µM under setting [1] was 58.1%. Moreover, the inhibition at 100 µM under setting [2] stood at 41.9%.
The matching figures for `O=C1/C(=C\c2ccco2)SC(=S)N1c1cccc(F)c1` [Compound 2027-0159]: 340% and 0%.
With `O=c1c2sccc2n(Cc2ccc(F)cc2Cl)c(=O)n1-c1cc(F)ccc1F` [Compound C241-0192], the remaining activity at 100 µM under setting [1] stood at 117%. For the same compound, the inhibition at 100 µM under setting [2] is 0%.
The matching figures for `CCCCC1NC(C(=O)O)CS1` (stereo not shown) [Compound K085-0025]: 128% and 0%.
On to `COc1cc(COC(C)=O)ccc1Oc1ccc([N+](=O)[O-])cc1[N+](=O)[O-]` [Compound 20], for which the remaining activity at 50 µM under setting [3] amounted to 69%.
Consider `O=c1/c(=C\c2ccccc2Cl)sc2nc3ccccc3n12` [Compound 3062-0592], for which the remaining activity at 100 µM under setting [1] is 71%. The inhibition at 100 µM under setting [2] amounted to 29.1%.
The like results for `O=C(NC(c1ccco1)c1cc(Cl)c2cccnc2c1O)c1cccnc1` (stereo not shown) [Compound K839-0124] were, in that order, 36.7% and 63.3%.
The like results for `COc1cc(C2NC(C(=O)O)CS2)ccc1O` (stereo not shown) [Compound K085-0027] were, in that order, 116% and 0%.
The matching figures for `CCOC(=O)c1sc(=S)n(-c2cccc3ccccc23)c1N` [Compound R052-0949]: 146% and 0%.
Consider `Cc1ccc2nc(-c3ccc(Cl)s3)c(Nc3ccc(Cl)cc3)n2c1` [Compound C239-0730], for which, under setting [1], the remaining activity at 100 µM is 113%. In addition, under setting [2], the inhibition at 100 µM turned out to be 0%.
The like results for `O=C(O)C1CSC(c2ccc([N+](=O)[O-])cc2)N1` (stereo not shown) [Compound K085-0004] were, in that order, 119% and 0%.
The matching figures for `Cc1ccc(/C=c2/sc3nc4ccccc4n3c2=O)cc1` [Compound 3062-0586]: 125% and 0%.
The like results for `Cc1nnc2c(Oc3ccc(Cl)cc3)nc3ccccc3n12` [Compound 5001-0261] were, in that order, 114% and 0%.
`Cc1nc2c(ccc3ccccc32)c(O)c1CN1CCOCC1` [Compound 3453-1337]: the remaining activity at 100 µM under setting [1] is 69.6%. The inhibition at 100 µM under setting [2] is 30.4%.
`CCCCN1CCc2nc3c(ccc4ccccc43)c(O)c2C1` [Compound 3453-1352]: the remaining activity at 100 µM under setting [1] was determined as 75.7%. For the same compound, under setting [2], the inhibition at 100 µM was 24.3%.
As for `COc1cc(C(=O)O)ccc1Oc1ccc([N+](=O)[O-])cc1[N+](=O)[O-]` [Compound 21], the remaining activity at 50 µM amounted to 48% and the half-maximal inhibitory concentration (IC50) came out at 20 µM.
As to `Cc1ccccc1Nc1c(-c2ccc(O)cc2)nc2ccc(Cl)cn12` [Compound C273-0223], the remaining activity at 100 µM under setting [1] is 130%. Moreover, the inhibition at 100 µM under setting [2] amounted to 0%.
The matching figures for `Cn1ncc(/N=C/c2ccccc2O)c1C(=O)N1CCOCC1` [Compound 2019-0006]: 50% and 50%.
Regarding `Oc1ccc(Nc2nc(-c3ccc(Cl)cc3)nc3ccccc23)cc1` [Compound 5847-1646], under setting [1], the remaining activity at 100 µM worked out at 96%. In addition, under setting [2], the inhibition at 100 µM amounted to 4.06%.
The matching figures for `Nc1nc(F)cc(Oc2ccccc2F)n1` [Compound 1544-0078]: 54.4% and 45.6%.
Consider `O=C(c1cnc(Nc2ccc(F)cc2)c2ccccc12)n1ccnc1` [Compound C066-1627], for which the inhibition at 100 µM under setting [2] was 0%.
`CC(C)C(=O)NC(c1ccccc1)c1ccc2cccnc2c1O` (stereo not shown) [Compound K839-0067]: the remaining activity at 100 µM under setting [1] came to 4.6%. In addition, the inhibition at 100 µM under setting [2] is 95.4%.
The matching figures for `Cc1nc2ccc(Cl)cc2c(O)c1CN1CCCC1` [Compound 4358-1240]: 81.8% and 18.2%.
For the compound `O=C(O)CCCCCN1C(=O)/C(=C/c2c[nH]c3ccccc23)SC1=S` [Compound 2279-3516], under “pH 4.4, read-out: % FF”, the remaining activity at 100 µM stood at 126%. In addition, under “pH 4.4”, the inhibition at 100 µM was found to be 0%.
Consider `CCOC(=O)c1c(N)sc(C(=O)Nc2cc(C)cc(C)c2)c1C` [Compound R052-1596], for which the remaining activity at 100 µM under setting [1] came out at 87.8%. Moreover, under setting [2], the inhibition at 100 µM came out at 12.2%.
The like results for `Nc1nc(Cl)cc(Oc2ccccc2F)n1` [Compound 1545-0131] were, in that order, 52.4% and 47.6%.
Consider `O=C(O)c1ccc(Oc2ccc([N+](=O)[O-])cc2[N+](=O)[O-])c(O)c1` [Compound 22], for which, under setting [3], the remaining activity at 50 µM was 75%.
For the compound `Nc1cc(O)nc(SCC(=O)N2CCOCC2)n1` [Compound 3996-0165], the remaining activity at 100 µM under setting [1] stood at 112%. For the same compound, the inhibition at 100 µM under setting [2] was 0%.
The like results for `Cc1ccc2nc(NC(=O)c3ccccc3O)sc2c1` [Compound 1300-0073] were, in that order, 368% and 0%.
Regarding `CCOc1cccc2c1OC(c1cccc(Cl)c1)N1N=C(c3cccs3)CC21` (stereo not shown) [Compound K805-0132], the inhibition at 100 µM under setting [2] was 0%.
For `CCc1ccc(Oc2cc(F)nc(N)n2)cc1` [Compound 1544-0079], the remaining activity at 100 µM under setting [1] was found to be 10.4%. For the same compound, under setting [2], the inhibition at 100 µM turned out to be 9.71%.
The matching figures for `NC(=O)CSc1ncc(-c2ccc(Cl)cc2)[nH]1` [Compound C290-0041]: 39.2% and 60.8%.
The matching figures for `O=C1NC(=S)S/C1=C\c1ccc(-c2cc(Cl)ccc2Cl)o1` [Compound 3062-0073]: 286% and 0%.
As for `O=Cc1ccc(Oc2ccc([N+](=O)[O-])cc2[N+](=O)[O-])c(O)c1` [Compound 17], the remaining activity at 50 µM amounted to 40.5% and the IC50 was 55 µM.
Regarding `O=C(O)c1cccc(-c2ccc(/C=C3\SC(=S)N(c4cccc(C(F)(F)F)c4)C3=O)o2)c1` [Compound 2027-0438], under setting [1], the remaining activity at 100 µM is 449%. The inhibition at 100 µM under setting [2] turned out to be 0%.
The like results for `O=C1/C(=C/c2ccc(Cl)cc2Cl)SC(=S)N1c1ccc(O)cc1` [Compound 2189-0835] were, in that order, 291% and 0%.
For the compound `COc1cc(CO)ccc1Oc1ccccc1` [Compound 3], the remaining activity at 50 µM amounted to 61.2%.
For `Cc1ccccc1Nc1c(-c2ccc(Cl)s2)nc2ccc(Cl)cn12` [Compound C273-0244], under setting [1], the remaining activity at 100 µM is 306%. In addition, the inhibition at 100 µM under setting [2] was found to be 0%.
The like results for `Cn1c(=O)c2c(nc(Oc3ccc(-n4cnnn4)cc3)n2C)n(C)c1=O` [Compound 3615-0252] were, in that order, 155% and 0%.
The matching figures for `O=C(O)C1CSC(c2ccc(Cl)cc2)N1` (stereo not shown) [Compound K085-0001]: 142% and 0%.
The matching figures for `Oc1ccccc1-c1nnc(S)o1` [Compound 0350-0160]: 13.8% and 86.2%.
With `Cc1ccc2nc(Nc3nc(O)c4ccccc4n3)nc(C)c2c1` [Compound 5594-0187], under setting [1], the remaining activity at 100 µM is 68.9%. In addition, the inhibition at 100 µM under setting [2] was 31.1%.
For the compound `Cc1ccn2c(Nc3ccc(F)cc3)c(-c3ccccn3)nc2c1` [Compound C273-0218], the remaining activity at 100 µM under setting [1] was determined as 162%. In addition, the inhibition at 100 µM under setting [2] came out at 0%.
As to `O=C(NC(c1cccc([N+](=O)[O-])c1)c1cc(Cl)c2cccnc2c1O)c1cccnc1` (stereo not shown) [Compound K839-0117], the remaining activity at 100 µM under setting [1] was 72.8%. For the same compound, under setting [2], the inhibition at 100 µM worked out at 27.2%.
`O=c1c2ccccc2nc2sc(Nc3ccc(F)cc3F)nn12` [Compound K284-2958]: the remaining activity at 100 µM under setting [1] is -2.03%. For the same compound, the inhibition at 100 µM under setting [2] was determined as 102%.
The like results for `Cc1nc2c(C(=O)NCCC(C)C)cnn2c(O)c1Cc1ccccc1F` [Compound C218-0295] were, in that order, -86.7% and 91.7%.
For the compound `O=C1/C(=C\c2cccc(O)c2)SC(=S)N1c1ccc(F)cc1` [Compound 3232-1704], the remaining activity at 100 µM under setting [1] was determined as 309%. The inhibition at 100 µM under setting [2] worked out at 0%.
The like results for `COc1ccc(/C=C2\SC(=S)N(c3ccc(O)cc3)C2=O)cc1` [Compound 2189-0710] were, in that order, 281% and 0%.
The matching figures for `O=C(O)C1CSC(c2c(F)cccc2Cl)N1` (stereo not shown) [Compound K085-0006]: 20.3% and 79.7%.
The matching figures for `Cc1nc2c(ccc3ccccc32)c(O)c1CN1CCCC1` [Compound 3453-1335]: 66.9% and 33.1%.
Turning to `COc1cccc(C(=O)NC(c2ccccc2)c2cc(Cl)c3cccnc3c2O)c1` (stereo not shown) [Compound K839-0116], the remaining activity at 100 µM under setting [1] worked out at 34.7%. Under setting [2], the inhibition at 100 µM was 65.3%.

The values above are taken from patent publication US20100190832A1, “Mechanism-based inhibitors of transthyretin amyloidosis: studies with biphenyl ethers and structural templates” (NATIONAL INSTITUTE OF IMMUNOLOGY., priority 2008, published 2010).
